# Data reported in patent US8710062B2, “Piperazinedione compounds” (Taipei Medical University, priority 2011, dated 2014).
# Structures can show the parent of a compound that is named as a salt.
# Test system: not given
# Conditions: not given
row,Compound,melting point
1,"O=c1[nH]/c(=C\c2ccc(OCc3cccnc3)cn2)c(=O)[nH]/c1=C\c1ccccc1 (as salt: sulfonic acid salt) [Compound 3, 3-benzylidene-6-((5-(pyridin-3-ylmethoxy)pyridin-2-yl)methylene)piperazine-2,5-dione methanesulfonic acid salt]",228 to 230 °C
2,"O=c1[nH]/c(=C\c2ccc(OCc3ccccn3)cn2)c(=O)[nH]/c1=C\c1ccccc1 (as salt: sulfonic acid salt) [Compound 4, 3-benzylidene-6-((5-(pyridin-2-ylmethoxy)pyridin-2-yl)methylene)piperazine-2,5-dione methanesulfonic acid salt]",266 to 267 °C
3,"NC(C(=O)Oc1ccc(/C=c2\[nH]c(=O)/c(=C/c3ccccc3)[nH]c2=O)nc1)c1ccccc1 (stereo not shown) (as salt: trifluoroacetate) [Compound 9, 2-(6-((Z)—((Z)-5-benzylidene-3,6-dioxopiperazin-2-ylidene)methyl)py-ridin-3-yloxy)-2-oxo-1-phenylethanaminium 2,2,2-trifluoroacetate]",280 °C
4,"NC(Cc1ccccc1)C(=O)Oc1ccc(/C=c2\[nH]c(=O)/c(=C/c3ccccc3)[nH]c2=O)nc1 (stereo not shown) (as salt: trifluoroacetate) [Compound 11, 1-(6-((Z)—((Z)-5-benzylidene-3,6-dioxopiperazin-2-ylidene)methyl)-pyridin-3-yloxy)-1-oxo-3-phenylpropan-2-aminium 2,2,2-trifluoroacetate]",285 to 286 °C
5,"NC(Cc1ccc(O)cc1)C(=O)Oc1ccc(/C=c2\[nH]c(=O)/c(=C/c3ccccc3)[nH]c2=O)nc1 (stereo not shown) (as salt: trifluoroacetate) [Compound 12, 1-(6-((Z)—((Z)-5-benzylidene-3,6-dioxopiperazin-2-ylidene)methyl)pyridin-3-yloxy)-3-(4-hydroxyphenyl)-1-oxopropan-2-aminium 2,2,2-trifluoroacetate]",312 to 314 °C
6,"CN1CCN(C(=O)Oc2ccc(/C=c3\[nH]c(=O)/c(=C/c4ccccc4)[nH]c3=O)nc2)CC1 [Compound 6, 6-((Z)—((Z)-5-benzylidene-3,6-dioxopiperazin-2-ylidene)methyl)pyridin-3-yl-4-methylpiperazine-1-carboxylate]",234 to 235 °C
7,"CC(C)(C)OC(=O)NC(Cc1ccccc1)C(=O)Oc1ccc(/C=c2\[nH]c(=O)/c(=C/c3ccccc3)[nH]c2=O)nc1 (stereo not shown) [Compound 10, 6-((Z)—((Z)-5-benzylidene-3,6-dioxopiperazin-2-ylidene)methyl)pyridin-3-yl 2-(tert-butoxycarbonylamino)-3-phenylpropanoate]",188 °C
8,"CC(C)(C)OC(=O)NC(Cc1ccc(OC(C)(C)C)cc1)C(=O)Oc1ccc(/C=c2\[nH]c(=O)/c(=C/c3ccccc3)[nH]c2=O)nc1 (stereo not shown) [Compound 13, 6-((Z)—((Z)-5-benzylidene-3,6-dioxopiperazin-2-ylidene)methyl)pyridin-3-yl-2-(tert-butoxycarbonylamino)-3-(4-tert-butoxyphenyl)propanoate]",210 to 212 °C
9,"O=c1[nH]/c(=C\c2ccc(OCc3ccncc3)cn2)c(=O)n(Cc2ccncc2)/c1=C\c1ccccc1 [Compound 14, (3Z,6Z)-6-benzylidene-3-((5-(pyridin-4-ylmethoxy)pyridin-2-yl)meth-ylene)-1-(pyridin-4-ylmethyl)piperazine-2,5-dione]",284 °C (dec.)
10,"CN(C)CCCOc1cccc(/C=c2\[nH]c(=O)/c(=C/c3ccc(OCc4ccccc4)cn3)[nH]c2=O)c1 [Compound 17, 3-((5-(benzyloxy)pyridin-2-yl)methylene)-6-(3-(3-(dimethylamino)propoxy)benzylidene)piperazine-2,5-dione]",286 °C (dec.)
11,"O=c1[nH]/c(=C\c2ccc(OCCO)cn2)c(=O)n(CCO)/c1=C\c1ccccc1 [Compound 18, 6-benzylidene-3-((5-(2-hydroxyethoxy)pyridin-2-yl)methylene)-1-(2-hydroxyethyl)piperazine-2,5-dione]",326 °C (dec.)
12,"CC(=O)N1CC(=O)N/C(=C\c2ccc3ccccc3n2)C1=O [Compound 19, 1-acetyl-3-(quinolin-2-ylmethylene)piperazine-2,5-dione]",262 to 263 °C
13,"O=c1[nH]/c(=C\c2ccc3ccccc3n2)c(=O)[nH]/c1=C\c1ccc2ccccc2n1 [Compound 20, 3,6-bis(quinolin-2-ylmethylene)piperazine-2,5-dione]",374 to 375 °C
14,"O=c1[nH]/c(=C\c2ccc3ccccc3n2)c(=O)[nH]/c1=C\c1cccnc1 [Compound 21, 3-(pyridin-3-ylmethylene)-6-(quinolin-2-ylmethylene)piperazine-2,5-dione]",305 to 306 °C
15,"O=c1[nH]/c(=C\c2ccc3ccccc3n2)c(=O)[nH]/c1=C\c1ccc(F)cc1 [Compound 22, 3-(4-fluorobenzylidene)-6-(quinolin-2-ylmethylene)piperazine-2,5-dione]",319 to 320 °C
16,"O=c1[nH]/c(=C\c2ccc3ccccc3n2)c(=O)[nH]/c1=C\c1ccc(Cl)cc1 [Compound 23, 3-(4-chlorobenzylidene)-6-(quinolin-2-ylmethylene)piperazine-2,5-dione]",348 to 349 °C
17,"O=c1[nH]/c(=C\c2cccs2)c(=O)[nH]/c1=C\c1ccc2ccccc2n1 [Compound 24, 3-(quinolin-2-ylmethylene)-6-(thiophen-2-ylmethylene)piperazine-2,5-dione]",288 to 289 °C
18,"O=c1[nH]/c(=C\c2ccnc3ccccc23)c(=O)[nH]/c1=C\c1ccnc2ccccc12 [Compound 26, 3,6-bis(quinolin-4-ylmethylene)piperazine-2,5-dione]",374 to 375 °C
19,"CC(=O)N1CC(=O)N/C(=C\c2cnc3ccccc3c2)C1=O [Compound 27, 1-acetyl-3-(quinolin-3-ylmethylene)piperazine-2,5-dione]",261 to 262 °C

# Test system: 60 Human Cancer Cell Lines (NCI-60)
# Conditions: data obtained from the NCI/DTP database (asterisk); cited from earlier work
row,Compound,pIC50
1,Nc1nc2[nH]cc(CCc3ccc(C(=O)N[C@@H](CCC(=O)O)C(=O)O)cc3)c2c(=O)[nH]1 [Alimta],4.97
2,"O=c1[nH]cc(F)c(=O)[nH]1 [Compound 5-FU, 5-FU]",4.76
3,Nc1ccn([C@@H]2O[C@H](CO)[C@@H](O)C2(F)F)c(=O)n1 [Gemcitabine],6.82
4,COc1cc2ncnc(Nc3ccc(F)c(Cl)c3)c2cc1OCCCN1CCOCC1 [Irressa],5.49
5,CN(Cc1cnc2nc(N)nc(N)c2n1)c1ccc(C(=O)N[C@@H](CCC(=O)O)C(=O)O)cc1 [MTX],6.95
6,CNC(=O)c1cc(Oc2ccc(NC(=O)Nc3ccc(Cl)c(C(F)(F)F)c3)cc2)ccn1 [Mexavar],5.73
7,CCN(CC)CCNC(=O)c1c(C)[nH]c(/C=C2\C(=O)Nc3ccc(F)cc32)c1C [Sutent],5.71
8,C#Cc1cccc(Nc2ncnc3cc(OCCOC)c(OCCOC)cc23)c1 [Tarceva],5.26
9,CC(=O)O[C@@]12CO[C@@H]1C[C@H](O)[C@@]1(C)C(=O)[C@H](O)C3=C(C)[C@@H](OC(=O)[C@H](O)[C@@H](NC(=O)OC(C)(C)C)c4ccccc4)C[C@@](O)([C@@H](OC(=O)c4ccccc4)[C@H]21)C3(C)C [docetxel],7.66
10,O=C1[O][Pt]2([NH][C@@H]3CCCC[C@H]3[NH]2)[O]C1=O [eloxatin],5.65
11,CCc1c2c(nc3ccc(OC(=O)N4CCC(N5CCCCC5)CC4)cc13)-c1cc3c(c(=O)n1C2)COC(=O)[C@]3(O)CC [irinotecan],4.85
12,CC(=O)O[C@H]1C(=O)[C@@]2(C)[C@H]([C@H](OC(=O)c3ccccc3)[C@]3(O)C[C@H](OC(=O)[C@H](O)[C@@H](NC(=O)c4ccccc4)c4ccccc4)C(C)=C1C3(C)C)[C@]1(OC(C)=O)CO[C@@H]1C[C@@H]2O [taxol],7.84
